In patent publication US9926602B2, “Recurrent gene fusions in prostate cancer” (THE REGENTS OF THE UNIVERSITY OF MICHIGAN, priority 2009, dated 2018):

Test system: UBE2L3-KRAS fusion protein
Assay: Western blot of UBE2L3-KRAS fusion protein with or without bortezomib
Assay type: cell-based, human
Procedure: The prostate cancer cell lines DU145 were transfected with siRNA duplex (Dharmacon, Lafayette, Colo., USA) against UBE2L3 (5′-CCACCGAAGATCACATTTA-3′; SEQ ID NO:1), KRAS (5′-GAAGTTATGGAATTCCTTT-3′; SEQ ID NO:2) or the fusion junction (5′-CCGACCAAGGCCTGCTGAA-3′; SEQ ID NO:3) by oligofectamine (Invitrogen). DU145 transfected with non-targeting siRNA and RWPE cells was used as negative control. Post 48 hours transfection, cells were homogenized in NP40 lysis buffer (50 mM Tris-HCl, 1% NP40, pH 7.4, Sigma, St. Louis, Mo.), and complete proteinase inhibitor mixture (Roche, Indianapolis, Ind.). Ten micrograms of each protein extract were boiled in sample buffer, separated by SDS-PAGE, and transferred onto Polyvinylidene Difluoride membrane (GE Healthcare, Piscataway, N.J.). The membrane was incubated for one hour in blocking buffer [Tris-buffered saline, 0.1% Tween (TBS-T), 5% nonfat dry milk] and incubated overnight at 4° C. with the following antibodies: anti-RAS mouse monoclonal (1:1000 in blocking buffer, Millipore Cat #: 05-516), anti-KRAS rabbit polyclonal (1:1000, Proteintech Group Inc., Cat #: 12063-1-AP) and anti-beta Actin mouse monoclonal (1:5000, Sigma Cat #: A5441) antibodies. Following three washes with TBS-T, the blot was incubated with horseradish peroxidase-conjugated secondary antibody and the signals visualized by enhanced chemiluminescence system as described by the manufacturer (GE Healthcare). To test fusion protein expression in multiple prostate derived cell lines, lysates from DU145, PrEC, RWPE, 22RV1, VCaP, PC3 either untreated or treated with 500 nM bortezomib for 12 hours were used. Bortezomib treated HEK cells over-expressing UBE2L3-KRAS fusion protein was used as a positive control. […] For ERK activation analysis NIH 3T3 cells were starved for 12 hours before immunoblot analysis using phospho erk1/2 antibody. All antibodies for the MAPK signaling proteins were purchased from Cell Signaling Technologies.

## CC(C)C[C@H](NC(=O)[C@H](Cc1ccccc1)NC(=O)c1cnccn1)B(O)O [bortezomib]
DU145 cells incubated with bortezomib
  levels of UBE2L3-KRAS protein expression: enhanced
HEK293 cells over-expressing UBE2L3-KRAS construct, in the presence of bortezomib
  expression of the UBE2L3-KRAS fusion protein: clearly apparent
RWPE cells overexpressing UBE2L3-KRAS
  expression of the UBE2L3-KRAS fusion protein: required
